Test system: psoriasis
Assay: Psoriasis, patients 32 and 33
Assay type: in vivo, human
Conditions: patient 32; fluocinonide alone on other elbow
From the text: Patient 32 had suffered from psoriasis on their arms and elbows for over 10 years. A 10-30 Kd peat preparation was applied to one elbow twice daily for approximately nine months, with the occasional simultaneous application of fluocinonide cream. Fluocinonide cream alone was used on the other elbow.
Patient 33 had psoriasis that seemed to only manifest itself after an occurrence of strep throat. Their only successful treatment had been with chemotherapeutic agents.

`CC(=O)OCC(=O)[C@@]12OC(C)(C)O[C@@H]1C[C@H]1[C@@H]3C[C@H](F)C4=CC(=O)C=C[C@]4(C)[C@@]3(F)[C@@H](O)C[C@@]12C` [fluocinonide] was tested, and the “psoriasis of elbow, skin lesions” value was “no decrease in the skin lesions”.

From patent publication US6267962A, “Compositions and methods of treatment using peat derivatives” (C-P Technology Limited Partnership, priority 1997, dated 2001)
